Columns and labels:
B. subtilis 168 [1] = assay: fitness (endpoint OD595 vs no drug) (fraction); higher = more growth
Method in brief: (§1)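 Each well of a 384-well plate received 30 µl of culture at OD595 0.01, or 55 µl for S. pneumoniae. TSB, LB Lennox or CY served as media at 37 °C. OD595 was taken every 30 min for 14 h and corrected by subtracting the first reading. Fitness is the optical density at stationary-phase entry divided by the robust mean of no-drug controls, capped at 1.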

S. aureus DSM 20231 [2] = assay: as above
Method in brief: as §1

B. subtilis 168 [3] = assay: Bliss interaction score (quartile over a dose matrix) (fitness difference); higher = more antagonism (negative = synergy)
Method in brief: (§2)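 Fitness is OD595 at stationary-phase entry relative to the plate's robust no-drug mean, capped at 1. Single-drug fitness was inferred from combinations. The Bliss score is observed minus product-expected fitness, summarised by quartiles over technical, biological and donor/recipient replicates.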

S. aureus DSM 20231 [4] = assay: as above
Method in brief: as §2

S. aureus Newman = assay: as above
Method in brief: as §2

S. pneumoniae D39V [5] = assay: as above
Method in brief: as §2

S. pneumoniae D39V [6] = assay: fitness (endpoint OD595 vs no drug) (fraction); higher = more growth
Method in brief: as §1
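Throughout, for Bliss interaction score (quartile over a dose matrix): first quartile when negative (synergy) and third quartile when positive (antagonism).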

CC(=O)NC[C@H]1CN(c2ccc(N3CCOCC3)c(F)c2)C(=O)O1 [Linezolid] + COc1cc(Cc2cnc(N)nc2N)cc(OC)c1OC [Trimethoprim]
one replicate
Settings | fitness
B. subtilis 168 [1], first compound 0.0625 µg/mL, partner 0.125 µg/mL | 0.455
B. subtilis 168 [1], first compound 0.0625 µg/mL, partner 0.25 µg/mL | 0.379
B. subtilis 168 [1], first compound 0.0625 µg/mL, partner 0.5 µg/mL | 0.365
B. subtilis 168 [1], first compound 0.125 µg/mL, partner 0.1 µg/mL | 0.661
B. subtilis 168 [1], first compound 0.125 µg/mL, partner 0.2 µg/mL | 0.51
B. subtilis 168 [1], first compound 0.125 µg/mL, partner 0.4 µg/mL | 0.458
B. subtilis 168 [1], first compound 0.125 µg/mL, partner 1 µg/mL | 0.338
B. subtilis 168 [1], first compound 0.125 µg/mL, partner 2 µg/mL | 0.252
B. subtilis 168 [1], first compound 0.25 µg/mL, partner 0.1 µg/mL | 0.224
B. subtilis 168 [1], first compound 0.25 µg/mL, partner 0.2 µg/mL | 0.137
B. subtilis 168 [1], first compound 0.25 µg/mL, partner 0.4 µg/mL | 0.0855
B. subtilis 168 [1], first compound 0.25 µg/mL, partner 1 µg/mL | 0.0539
B. subtilis 168 [1], first compound 0.25 µg/mL, partner 2 µg/mL | 0.0332
B. subtilis 168 [1], first compound 0.5 µg/mL, partner 0.1 µg/mL | 0.0326
B. subtilis 168 [1], first compound 0.5 µg/mL, partner 0.125 µg/mL | 0.0335
B. subtilis 168 [1], first compound 0.5 µg/mL, partner 0.2 µg/mL | 0.0707
B. subtilis 168 [1], first compound 0.5 µg/mL, partner 0.4 µg/mL | 0.034
B. subtilis 168 [1], first compound 0.5 µg/mL, partner 1 µg/mL | 0.0459
B. subtilis 168 [1], first compound 0.5 µg/mL, partner 2 µg/mL | 0.0328
S. aureus DSM 20231 [2], first compound 0.125 µg/mL, partner 0.125 µg/mL | 0.693
S. aureus DSM 20231 [2], first compound 1 µg/mL, partner 0.125 µg/mL | 0.0426
S. aureus DSM 20231 [2], first compound 1 µg/mL, partner 0.25 µg/mL | 0.0292
S. aureus DSM 20231 [2], first compound 1 µg/mL, partner 0.5 µg/mL | 0.0293

fitness
Settings | partner 0.125 µg/mL | partner 0.25 µg/mL | partner 0.5 µg/mL | partner 1 µg/mL
B. subtilis 168 [1], first compound 0.125 µg/mL | 0.481 | – | – | –
B. subtilis 168 [1], first compound 0.25 µg/mL | 0.178 | 0.239 | 0.149 | –
B. subtilis 168 [1], first compound 0.5 µg/mL | – | 0.0539 | 0.0519 | –
S. aureus DSM 20231 [2], first compound 0.125 µg/mL | – | 0.7 | 0.54 | 0.0522
S. aureus DSM 20231 [2], first compound 0.25 µg/mL | 0.511 | 0.566 | 0.462 | 0.118
S. aureus DSM 20231 [2], first compound 0.5 µg/mL | 0.157 | 0.153 | 0.139 | 0.115

Settings | Bliss interaction score
B. subtilis 168 [3] | 0.0503
S. aureus DSM 20231 [4] | 0.129
S. aureus Newman | 0.096
S. pneumoniae D39V [5] | -0.161

CC(=O)NC[C@H]1CN(c2ccc(N3CCOCC3)c(F)c2)C(=O)O1 [Linezolid] + COc1ccc(C[C@H](N)C(=O)N[C@H]2[C@@H](O)[C@H](n3cnc4c(N(C)C)ncnc43)O[C@@H]2CO)cc1 [Puromycin]
one replicate
Settings | fitness
B. subtilis 168 [1], first compound 0.0625 µg/mL, partner 0.39 µg/mL | 0.885
B. subtilis 168 [1], first compound 0.0625 µg/mL, partner 0.78 µg/mL | 0.885
B. subtilis 168 [1], first compound 0.0625 µg/mL, partner 1.56 µg/mL | 0.904
S. aureus DSM 20231 [2], first compound 0.125 µg/mL, partner 3.12 µg/mL | 0.824
S. aureus DSM 20231 [2], first compound 0.125 µg/mL, partner 6.24 µg/mL | 0.287
S. aureus DSM 20231 [2], first compound 0.25 µg/mL, partner 3.12 µg/mL | 0.344
S. aureus DSM 20231 [2], first compound 0.25 µg/mL, partner 6.24 µg/mL | 0.118
S. aureus DSM 20231 [2], first compound 0.5 µg/mL, partner 3.12 µg/mL | 0.0742
S. aureus DSM 20231 [2], first compound 0.5 µg/mL, partner 6.24 µg/mL | 0.0788
S. aureus DSM 20231 [2], first compound 1 µg/mL, partner 0.39 µg/mL | 0.0293
S. aureus DSM 20231 [2], first compound 1 µg/mL, partner 0.78 µg/mL | 0.0469
S. aureus DSM 20231 [2], first compound 1 µg/mL, partner 1.56 µg/mL | 0.0437
S. pneumoniae D39V [6], first compound 0.2 µg/mL, partner 1 µg/mL | 0.712
S. pneumoniae D39V [6], first compound 0.2 µg/mL, partner 2 µg/mL | 0.742
S. pneumoniae D39V [6], first compound 0.2 µg/mL, partner 4 µg/mL | 0.608
S. pneumoniae D39V [6], first compound 0.4 µg/mL, partner 1 µg/mL | 0.564
S. pneumoniae D39V [6], first compound 0.4 µg/mL, partner 2 µg/mL | 0.599
S. pneumoniae D39V [6], first compound 0.4 µg/mL, partner 4 µg/mL | 0.404
S. pneumoniae D39V [6], first compound 0.8 µg/mL, partner 1 µg/mL | 0.181
S. pneumoniae D39V [6], first compound 0.8 µg/mL, partner 2 µg/mL | 0.215
S. pneumoniae D39V [6], first compound 0.8 µg/mL, partner 4 µg/mL | 0.15

fitness
Settings | first compound 0.105 µg/mL | first compound 0.125 µg/mL | first compound 0.21 µg/mL | first compound 0.25 µg/mL | first compound 0.42 µg/mL | first compound 0.5 µg/mL
B. subtilis 168 [1], partner 0.39 µg/mL | – | 0.55 | – | 0.0916 | – | 0.0287
B. subtilis 168 [1], partner 0.78 µg/mL | – | 0.569 | – | 0.118 | – | 0.0397
B. subtilis 168 [1], partner 1.56 µg/mL | – | 0.599 | – | 0.128 | – | 0.0443
S. aureus DSM 20231 [2], partner 0.39 µg/mL | – | 0.91 | – | 0.595 | – | 0.193
S. aureus DSM 20231 [2], partner 0.78 µg/mL | – | 0.849 | – | 0.591 | – | 0.209
S. aureus DSM 20231 [2], partner 1.56 µg/mL | – | 0.944 | – | 0.578 | – | 0.152
S. pneumoniae D39V [6], partner 1 µg/mL | 0.833 | – | 0.746 | – | 0.606 | –
S. pneumoniae D39V [6], partner 2 µg/mL | 0.788 | – | 0.685 | – | 0.323 | –
S. pneumoniae D39V [6], partner 4 µg/mL | 0.644 | – | 0.446 | – | 0.233 | –

Settings | Bliss interaction score
B. subtilis 168 [3] | 0.075
S. aureus DSM 20231 [4] | -0.0587
S. aureus Newman | -0.0605
S. pneumoniae D39V [5] | -0.132

CC(=O)NC[C@H]1CN(c2ccc(N3CCOCC3)c(F)c2)C(=O)O1 [Linezolid] + C[n+]1ccc(-c2cc[n+](C)cc2)cc1 [Paraquat]
fitness, one replicate
Settings | partner 1.25 µg/mL | partner 1.5 µg/mL | partner 2.5 µg/mL | partner 3 µg/mL | partner 5 µg/mL | partner 6 µg/mL
B. subtilis 168 [1], first compound 0.0625 µg/mL | 0.876 | – | 0.876 | – | 0.749 | –
S. aureus DSM 20231 [2], first compound 1 µg/mL | 0.0626 | – | 0.0623 | – | 0.0727 | –
S. pneumoniae D39V [6], first compound 0.2 µg/mL | – | 0.883 | – | 0.921 | – | 0.93
S. pneumoniae D39V [6], first compound 0.4 µg/mL | – | 0.822 | – | 0.853 | – | 0.874
S. pneumoniae D39V [6], first compound 0.8 µg/mL | – | 0.621 | – | 0.626 | – | 0.727

fitness
Settings | first compound 0.105 µg/mL | first compound 0.125 µg/mL | first compound 0.21 µg/mL | first compound 0.25 µg/mL | first compound 0.42 µg/mL | first compound 0.5 µg/mL
B. subtilis 168 [1], partner 1.25 µg/mL | – | 0.562 | – | 0.068 | – | 0.0393
B. subtilis 168 [1], partner 2.5 µg/mL | – | 0.521 | – | 0.0848 | – | 0.0301
B. subtilis 168 [1], partner 5 µg/mL | – | 0.531 | – | 0.101 | – | 0.0453
S. aureus DSM 20231 [2], partner 1.25 µg/mL | – | 0.812 | – | 0.6 | – | 0.234
S. aureus DSM 20231 [2], partner 2.5 µg/mL | – | 0.768 | – | 0.63 | – | 0.295
S. aureus DSM 20231 [2], partner 5 µg/mL | – | 0.845 | – | 0.654 | – | 0.323
S. pneumoniae D39V [6], partner 1.5 µg/mL | 0.876 | – | 0.76 | – | 0.598 | –
S. pneumoniae D39V [6], partner 3 µg/mL | 0.836 | – | 0.743 | – | 0.565 | –
S. pneumoniae D39V [6], partner 6 µg/mL | 0.826 | – | 0.711 | – | 0.565 | –

Settings | Bliss interaction score
B. subtilis 168 [3] | 0.0297
S. aureus DSM 20231 [4] | 0.0716
S. aureus Newman | -0.0403
S. pneumoniae D39V [5] | 0.109

CC(=O)NC[C@H]1CN(c2ccc(N3CCOCC3)c(F)c2)C(=O)O1 [Linezolid] + Cc1cc(NS(=O)(=O)c2ccc(N)cc2)no1 [Sulfamethoxazol]
fitness, one replicate
Settings | partner 0.5 µg/mL | partner 1 µg/mL | partner 2 µg/mL | partner 4 µg/mL
B. subtilis 168 [1], first compound 0.0625 µg/mL | – | 0.94 | 0.895 | 0.828
B. subtilis 168 [1], first compound 0.125 µg/mL | 0.858 | – | – | –
B. subtilis 168 [1], first compound 0.25 µg/mL | 0.446 | – | – | –
B. subtilis 168 [1], first compound 0.5 µg/mL | 0.0399 | – | – | –
S. aureus DSM 20231 [2], first compound 1 µg/mL | – | 0.0364 | 0.0289 | 0.0207
S. pneumoniae D39V [6], first compound 0.2 µg/mL | – | 0.777 | 0.817 | 0.726
S. pneumoniae D39V [6], first compound 0.4 µg/mL | – | 0.368 | 0.674 | 0.661
S. pneumoniae D39V [6], first compound 0.8 µg/mL | – | 0.348 | 0.427 | 0.397

fitness
Settings | first compound 0.105 µg/mL | first compound 0.125 µg/mL | first compound 0.21 µg/mL | first compound 0.25 µg/mL | first compound 0.42 µg/mL | first compound 0.5 µg/mL
B. subtilis 168 [1], partner 1 µg/mL | – | 0.606 | – | 0.2 | – | 0.0228
B. subtilis 168 [1], partner 2 µg/mL | – | 0.525 | – | 0.13 | – | 0.0265
B. subtilis 168 [1], partner 4 µg/mL | – | 0.515 | – | 0.0743 | – | 0.0275
S. aureus DSM 20231 [2], partner 1 µg/mL | – | 0.844 | – | 0.55 | – | 0.167
S. aureus DSM 20231 [2], partner 2 µg/mL | – | 0.865 | – | 0.533 | – | 0.161
S. aureus DSM 20231 [2], partner 4 µg/mL | – | 0.852 | – | 0.557 | – | 0.186
S. pneumoniae D39V [6], partner 1 µg/mL | 0.774 | – | 0.688 | – | 0.463 | –
S. pneumoniae D39V [6], partner 2 µg/mL | 0.772 | – | 0.71 | – | 0.48 | –
S. pneumoniae D39V [6], partner 4 µg/mL | 0.821 | – | 0.729 | – | 0.48 | –

Settings | Bliss interaction score
B. subtilis 168 [3] | -0.0478
S. aureus DSM 20231 [4] | -0.03
S. aureus Newman | 0.0723
S. pneumoniae D39V [5] | -0.0972

From the supplement of paper PMC10627819
